The target of assay [1] is T1, human GLP-1 R (Homo sapiens, UniProt P43220).
T1 construct: expressed in transfected cells
Description: Human GLP-1 receptor (GLP-1 R) activity assay, cAMP induction (AlphaScreen) in HEK293 cells. It counts as cell-based. The method, then: (§1) Human GIP Receptor (GIP R) and GLP-1 Receptor (GLP-1 R) Activity Assay
(§2) In vitro effects of peptide conjugates of the invention were assessed by measuring the induction of cAMP following stimulation of the respective receptor by GIP, GLP1 or analogues of these, as outlined in the invention, using the AlphaSceen® cAMP kit from Perkin-Elmer according to instructions. Briefly, HEK293 cells expressing the human GIP R or GLP-1 R (stable cell lines generated through transfection of the cDNA for human GIP R or GLP-1 and selection of stable clones) were seeded at 30,000 cells/well in 96-well microtiter plates coated with 0.01% poly-L-lysine, and grown for 1 day in culture in 200 μl growth medium (DMEM, 10% FCS, Penicillin (100 IU/ml), Streptomycin (100 μg/ml)). On the day of analysis, growth medium was removed and the cells were washed once with […] Tyrode's buffer (Tyrode's Salts (9.6 g/l), 10 mM HEPES, pH 7.4). […] The Assay buffer was removed and cells are lysed in 80 μl Lysis buffer (0.1% w/v BSA, 5 mM HEPES, 0.3% v/v Tween-20) per well. From each well 10 μl lysed cells was transferred to a 384-well plate and mixed with 15 μl bead-mix (1 Unit/15 μl anti-cAMP Acceptor Beads, 1 Unit/15 μl Donor Beads, and 1 Unit/15 μl Biotinylated cAMP in Assay Buffer). The plates were mixed and incubated in the dark for an hour at room temperature before measuring using an Envision™ plate reader (Perkin-Elmer).
(§3) The resulting cAMP curves were plotted as absolute cAMP concentrations (nM) over log (test compound concentration) and analyzed using the curve fitting program XLfit.
(§4) Parameters calculated to describe both the potency as well as the agonistic activity of each test compound on the receptors were:
(§5) EC50, a concentration resulting in a half-maximal elevation of cAMP levels, reflecting the potency of the test compound.
In general terms: Bead proximity is the source of the signal in Alpha formats.

Assay [2] concerns the target T2, human GIP R (Homo sapiens, UniProt P48546).
T2 construct: expressed in transfected cells
T2 sequence (P48546 22-466): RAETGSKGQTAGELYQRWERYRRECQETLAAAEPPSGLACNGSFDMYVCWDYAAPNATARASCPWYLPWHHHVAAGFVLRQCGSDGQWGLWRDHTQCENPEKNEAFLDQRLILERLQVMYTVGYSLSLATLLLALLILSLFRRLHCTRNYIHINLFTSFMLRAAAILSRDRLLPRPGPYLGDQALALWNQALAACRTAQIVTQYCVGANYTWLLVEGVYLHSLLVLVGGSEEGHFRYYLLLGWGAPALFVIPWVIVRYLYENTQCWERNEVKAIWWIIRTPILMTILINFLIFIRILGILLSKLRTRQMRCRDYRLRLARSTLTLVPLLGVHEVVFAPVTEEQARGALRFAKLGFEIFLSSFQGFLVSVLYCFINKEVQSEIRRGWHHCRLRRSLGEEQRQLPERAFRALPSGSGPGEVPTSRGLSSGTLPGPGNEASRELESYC
Description: Human GIP receptor (GIP R) activity assay, cAMP induction (AlphaScreen) in HEK293 cells. Format: cell-based. The following applies: read-out: hGIP-R cAMP EC50 average value. The method, then: as §1, §2, §3, §4, §5

The mark [3] stands for this setting: Table 2, HEK293 cells expressing human GLP-1 R, read-out: hGLP1-R cAMP EC50 average value.
Where [4] appears, read: Table 2a, secondary assay study, read-out: hGLP1-R cAMP EC50 average value.
Where [5] appears, read: Table 2, HEK293 cells expressing human GIP R.
[6] abbreviates: Table 2a, secondary assay study.
The mark [7] stands for this setting: Table 3, most comprehensive data.
Where [8] appears, read: Table 3, most comprehensive data, read-out: hGLP-1-R cAMP EC50 average value.

Where two headings read alike, the source gives them in different places. *1 amine or outer side, *2 acyl side, *3 side chain or, on linkers, in order; H or OH if unused. Where a SMILES comes first, the peptide text is derived from it. Side-chain parts run from the residue outwards. [ ]: non-standard residue; d: D form. The star is where a group is joined. C18 diacid = O=C(O)CCCCCCCCCCCCCCCCC(=O)*; γGlu = O=C(O)[C@H](CCC(=O)[*:2])N[*:1]; AEEA = NCCOCCOCC(=O)O; Aib = CC(C)(N)C(=O)O

T1 sequence (P43220 24-463): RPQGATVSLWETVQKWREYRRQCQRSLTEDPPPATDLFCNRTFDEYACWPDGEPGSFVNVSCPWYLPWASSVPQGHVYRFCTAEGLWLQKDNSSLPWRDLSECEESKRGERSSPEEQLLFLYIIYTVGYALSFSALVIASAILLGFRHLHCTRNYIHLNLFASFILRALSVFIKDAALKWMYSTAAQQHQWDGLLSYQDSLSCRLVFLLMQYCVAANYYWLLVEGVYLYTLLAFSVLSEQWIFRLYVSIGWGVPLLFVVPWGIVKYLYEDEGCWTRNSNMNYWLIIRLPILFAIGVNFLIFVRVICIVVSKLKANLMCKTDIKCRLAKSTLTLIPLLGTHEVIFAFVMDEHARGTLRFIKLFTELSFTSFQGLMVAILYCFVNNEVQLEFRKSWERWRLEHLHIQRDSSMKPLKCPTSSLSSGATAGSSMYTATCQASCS

The term EC50 denotes the concentration needed to bring the measured effect to its halfway point. Take `CC[C@H](C)[C@H](NC(=O)[C@H](CO)NC(=O)[C@H](Cc1ccc(O)cc1)NC(=O)[C@H](CC(=O)O)NC(=O)[C@H](CO)NC(=O)[C@@H](NC(=O)[C@H](Cc1ccccc1)NC(=O)[C@@H](NC(=O)CNC(=O)[C@H](CCC(=O)O)NC(=O)C(C)(C)NC(=O)[C@@H](N)Cc1ccc(O)cc1)[C@@H](C)O)[C@@H](C)O)C(=O)NC(C)(C)C(=O)N[C@@H](CC(C)C)C(=O)N[C@@H](CC(=O)O)C(=O)N[C@@H](CCCCN)C(=O)N[C@@H](CCCCNC(=O)COCCOCCNC(=O)COCCOCCNC(=O)CC[C@H](NC(=O)CCCCCCCCCCCCCCCCC(=O)O)C(=O)O)C(=O)N[C@@H](C)C(=O)N[C@@H](CCC(N)=O)C(=O)N[C@@H](CCCNC(=N)N)C(=O)N[C@@H](C)C(=O)N[C@@H](Cc1ccccc1)C(=O)N[C@H](C(=O)N[C@@H](CCC(=O)O)C(=O)N[C@@H](Cc1c[nH]c2ccccc12)C(=O)N[C@@H](CC(C)C)C(=O)N[C@@H](CC(C)C)C(=O)N[C@@H](C)C(=O)N[C@@H](CCC(N)=O)C(=O)NCC(=O)N1CCC[C@H]1C(=O)N[C@@H](CO)C(=O)N[C@@H](CO)C(=O)NCC(=O)N[C@@H](C)C(=O)N1CCC[C@H]1C(=O)N1CCC[C@H]1C(=O)N1CCC[C@H]1C(=O)N[C@@H](CO)C(N)=O)C(C)C` [Compound 11] (H-Y[Aib]EGTFTSDYSI[Aib]LDKK([AEEA-AEEA-γGlu-C18 diacid])AQRAFVEWLLAQGPSSGAPPPS-NH2): the concentration giving a half-maximal response (EC50) is 0.013 nM in assay [1] (setting [3]); 0.013 nM in assay [1] (setting [4]); 0.0047 nM in assay [2] (setting [5]); 0.005 nM in assay [2] (setting [6]); 0.005 nM in assay [2] (setting [7]).
Consider `CC[C@H](C)[C@H](NC(=O)[C@H](CO)NC(=O)[C@H](Cc1ccc(O)cc1)NC(=O)[C@H](CC(=O)O)NC(=O)[C@H](CO)NC(=O)[C@@H](NC(=O)[C@H](Cc1ccccc1)NC(=O)[C@@H](NC(=O)CNC(=O)[C@H](CCC(=O)O)NC(=O)C(C)(C)NC(=O)[C@@H](N)Cc1ccc(O)cc1)[C@@H](C)O)[C@@H](C)O)C(=O)N[C@@H](Cc1ccc(O)cc1)C(=O)N[C@@H](CC(C)C)C(=O)N[C@@H](CC(=O)O)C(=O)N[C@@H](CCCCN)C(=O)N[C@@H](CCCCNC(=O)COCCOCCNC(=O)COCCOCCNC(=O)CC[C@H](NC(=O)CCCCCCCCCCCCCCCCC(=O)O)C(=O)O)C(=O)N[C@@H](C)C(=O)N[C@@H](CCC(N)=O)C(=O)N[C@@H](CCCNC(=N)N)C(=O)N[C@@H](C)C(=O)N[C@@H](Cc1ccccc1)C(=O)N[C@H](C(=O)N[C@@H](CC(N)=O)C(=O)N[C@@H](Cc1c[nH]c2ccccc12)C(=O)N[C@@H](CC(C)C)C(=O)N[C@@H](CC(C)C)C(=O)N[C@@H](C)C(=O)NC(C)(C)C(=O)N[C@@H](CCCCN)C(N)=O)C(C)C` [Compound 12] (H-Y[Aib]EGTFTSDYSIYLDKK([AEEA-AEEA-γGlu-C18 diacid])AQRAFVNWLLA[Aib]K-NH2), for which the EC50 in assay [1] (setting [3]) stood at 0.016 nM; in assay [1] (setting [4]), 0.017 nM; in assay [2] (setting [5]), 0.011 nM; in assay [2] (setting [6]), 0.012 nM.
As for `CC[C@H](C)[C@H](NC(=O)[C@H](Cc1ccccc1)NC(=O)[C@H](CCC(=O)O)NC(=O)[C@H](CCCCN)NC(=O)[C@H](C)NC(=O)[C@H](C)NC(=O)[C@H](CCCCNC(=O)COCCOCCNC(=O)COCCOCCNC(=O)CC[C@H](NC(=O)CCCCCCCCCCCCCCCCC(=O)O)C(=O)O)NC(=O)[C@H](CCC(=O)O)NC(=O)[C@H](CC(=O)O)NC(=O)[C@H](CC(C)C)NC(=O)[C@H](Cc1ccc(O)cc1)NC(=O)[C@@H](NC(=O)[C@H](CO)NC(=O)[C@H](Cc1ccc(O)cc1)NC(=O)[C@H](CC(=O)O)NC(=O)[C@H](CO)NC(=O)[C@@H](NC(=O)[C@H](Cc1ccccc1)NC(=O)[C@@H](NC(=O)CNC(=O)[C@H](CCC(=O)O)NC(=O)C(C)(C)NC(=O)[C@@H](N)Cc1ccc(O)cc1)[C@@H](C)O)[C@@H](C)O)[C@@H](C)CC)C(=O)N[C@@H](CCC(=O)O)C(=O)N[C@@H](Cc1c[nH]c2ccccc12)C(=O)N[C@@H](CC(C)C)C(=O)N[C@@H](CCC(=O)O)C(=O)N[C@@H](CO)C(=O)N[C@@H](C)C(N)=O` [Compound 13], the EC50 was 0.057 nM in assay [1] (setting [8]) and 0.15 nM in assay [2] (setting [7]).
On to `CC[C@H](C)[C@H](NC(=O)[C@H](CO)NC(=O)[C@H](Cc1ccc(O)cc1)NC(=O)[C@H](CC(=O)O)NC(=O)[C@H](CO)NC(=O)[C@@H](NC(=O)[C@H](Cc1ccccc1)NC(=O)[C@@H](NC(=O)CNC(=O)[C@H](CCC(=O)O)NC(=O)C(C)(C)NC(=O)[C@@H](N)Cc1ccc(O)cc1)[C@@H](C)O)[C@@H](C)O)C(=O)N[C@@H](C)C(=O)N[C@@H](CC(C)C)C(=O)N[C@@H](CC(=O)O)C(=O)N[C@@H](CCCCN)C(=O)N[C@@H](CCCCNC(=O)COCCOCCNC(=O)COCCOCCNC(=O)CC[C@H](NC(=O)CCCCCCCCCCCCCCCCC(=O)O)C(=O)O)C(=O)N[C@@H](C)C(=O)N[C@@H](CCC(N)=O)C(=O)N[C@@H](CCCNC(=N)N)C(=O)N[C@@H](C)C(=O)N[C@@H](Cc1ccccc1)C(=O)N[C@H](C(=O)N[C@@H](CC(N)=O)C(=O)N[C@@H](Cc1c[nH]c2ccccc12)C(=O)N[C@@H](CC(C)C)C(=O)N[C@H](C(=O)N[C@@H](C)C(=O)NC(C)(C)C(=O)N[C@@H](CCCCN)C(=O)N1CCC[C@H]1C(=O)N[C@@H](CO)C(=O)N[C@@H](CO)C(=O)NCC(=O)N[C@@H](C)C(=O)N1CCC[C@H]1C(=O)N1CCC[C@H]1C(=O)N1CCC[C@H]1C(=O)N[C@@H](CO)C(N)=O)C(C)C)C(C)C` [Compound 14], for which the EC50 in assay [1] (setting [3]) turned out to be 0.008 nM; in assay [1] (setting [8]), 0.008 nM; in assay [2] (setting [5]), 0.0064 nM; in assay [2] (setting [7]), 0.006 nM.
As to `CC[C@H](C)[C@H](NC(=O)[C@H](Cc1ccccc1)NC(=O)[C@H](CCC(=O)O)NC(=O)[C@H](CCCCN)NC(=O)[C@H](C)NC(=O)[C@H](C)NC(=O)[C@H](CCCCNC(=O)COCCOCCNC(=O)COCCOCCNC(=O)CC[C@H](NC(=O)CCCCCCCCCCCCCCCCC(=O)O)C(=O)O)NC(=O)[C@H](CCC(=O)O)NC(=O)[C@H](CC(=O)O)NC(=O)[C@H](CC(C)C)NC(=O)[C@H](Cc1ccc(O)cc1)NC(=O)[C@@H](NC(=O)[C@H](CO)NC(=O)[C@H](Cc1ccc(O)cc1)NC(=O)[C@H](CC(=O)O)NC(=O)[C@H](CO)NC(=O)[C@@H](NC(=O)[C@H](Cc1ccccc1)NC(=O)[C@@H](NC(=O)CNC(=O)[C@H](CCC(=O)O)NC(=O)C(C)(C)NC(=O)[C@@H](N)Cc1ccc(O)cc1)[C@@H](C)O)[C@@H](C)O)[C@@H](C)CC)C(=O)N[C@@H](CCC(=O)O)C(=O)N[C@@H](Cc1c[nH]c2ccccc12)C(=O)N[C@@H](CC(C)C)C(=O)N[C@@H](CCC(=O)O)C(=O)N[C@@H](CO)C(=O)N[C@@H](C)C(N)=O` [Compound 14], the EC50 was 0.056 nM in assay [1] (setting [4]) and 0.147 nM in assay [2] (setting [6]).
As to `CC[C@H](C)[C@H](NC(=O)[C@H](CO)NC(=O)[C@H](Cc1ccc(O)cc1)NC(=O)[C@H](CC(=O)O)NC(=O)[C@H](CO)NC(=O)[C@@H](NC(=O)[C@H](Cc1ccccc1)NC(=O)[C@@H](NC(=O)CNC(=O)[C@H](CCC(=O)O)NC(=O)C(C)(C)NC(=O)[C@@H](N)Cc1ccc(O)cc1)[C@@H](C)O)[C@@H](C)O)C(=O)N[C@@H](C)C(=O)N[C@@H](CC(C)C)C(=O)N[C@@H](CC(=O)O)C(=O)N[C@@H](CCCCN)C(=O)N[C@@H](CCCCNC(=O)COCCOCCNC(=O)COCCOCCNC(=O)CC[C@H](NC(=O)CCCCCCCCCCCCCCCCC(=O)O)C(=O)O)C(=O)N[C@@H](C)C(=O)N[C@@H](CCC(N)=O)C(=O)N[C@@H](CCCNC(=N)N)C(=O)N[C@@H](C)C(=O)N[C@@H](Cc1ccccc1)C(=O)N[C@H](C(=O)N[C@@H](CC(N)=O)C(=O)N[C@@H](Cc1c[nH]c2ccccc12)C(=O)N[C@@H](CC(C)C)C(=O)N[C@H](C(=O)N[C@@H](C)C(=O)NC(C)(C)C(=O)N[C@@H](CCCCN)C(=O)N1CCC[C@H]1C(=O)N[C@@H](CO)C(=O)N[C@@H](CO)C(=O)NCC(=O)N[C@@H](C)C(=O)N1CCC[C@H]1C(=O)N1CCC[C@H]1C(=O)N1CCC[C@H]1C(=O)N[C@@H](CO)C(N)=O)C(C)C)C(C)C` [Compound 15], the EC50 turned out to be 0.008 nM in assay [1] (setting [4]) and 0.006 nM in assay [2] (setting [6]).
